# Laboratory results from article PMC9380671, “Development of spiro-3-indolin-2-one containing compounds of antiproliferative and anti-SARS-CoV-2 properties” (Scientific Reports, 2022).
# Read-outs that look alike come from different tables or passages of the source.
# Experiments:
# [1] = system: SARS-CoV-2 (hCoV-19/Egypt/NRC-03/2020); conditions: Vero-E6; cited from earlier work
# [2] = system: MCF7 (breast) cancer cell line; test: MTT antiproliferation, MCF7; type: cell-based, human; conditions: for IC50: Homo sapiens, MCF7, 72 h, read-out: IC50 (µM) ± SEM MCF7; for SI (selectivity index) MCF7: IC50 of RPE1/IC50 of cancer cell line
# Method: (§1) Antiproliferation properties of the targeted agents were investigated by the standard MTT technique against diverse human cancer cell lines [MCF7 (breast), HCT116 (colon), A431 (skin squamous) and PaCa2 (pancreatic)][67] (Table 1, Supplementary Figs. S48‒S51).
# (§2) Cells were seeded at concentration of 30000 cells per well in fresh complete growth medium in 96-well tissue culture microtiter plates for 24 h. […] 0.5% DMSO was used as negative control. Triplicate wells were prepared for each individual dose. After 72 h of incubation, medium was aspirated, 40 μl MTT salt (2.5 mg ml^-1) was added to each well and incubated for further 4 h at 37 °C. To stop the reaction and dissolve the formed crystals, 150 μl of 10% sodium dodecyl sulfate (SDS) in deionized water was added to each well and incubated overnight at 37 °C.
# (§3) Data were collected as mean values for experiments performed in triplicates for each individual dose which had been measured by MTT assay. […] The cell surviving fraction was calculated according to the following equation.
# (§4) Surviving fraction = OpticaldensityO.D.oftreatedcellsO.D.ofcontrolcells
# (§5) Statistical calculations for determination of the mean and standard error mean values were determined by SPSS 16 software.
# [3] = system: HCT116 (colon) cancer cell line; test: MTT antiproliferation, HCT116; type: cell-based, human; conditions: for IC50: Homo sapiens, HCT-116, 72 h, read-out: IC50 (µM) ± SEM HCT116; for SI (selectivity index) HCT116: IC50 of RPE1/IC50 of cancer cell line
# Method: as §1, §2, §3, §4, §5
# [4] = system: A431 (skin squamous) cancer cell line; test: MTT antiproliferation, A431; type: cell-based, human; conditions: for IC50: Homo sapiens; for SI (selectivity index) A431: IC50 of RPE1/IC50 of cancer cell line
# Method: as §1, §2, §3, §4, §5
# [5] = system: PaCa2 (pancreatic) cancer cell line; test: MTT antiproliferation, PaCa-2; type: cell-based, human; conditions: for IC50: Homo sapiens, PaCa-2, 72 h, read-out: IC50 (µM) ± SEM PaCa-2; for SI (selectivity index) PaCa-2: IC50 of RPE1/IC50 of cancer cell line
# Method: as §1
# Cells were suspended in DMEM medium for MCF7, A431, PaCa-2 and McCoy’s 5A for HCT116 in addition to 1% antibiotic–antimycotic mixture (10000 μg ml^-1 potassium penicillin, 10000 μg ml^-1 streptomycin sulfate and 25 μg ml^-1 amphotericin B), 10% fetal bovine serum and 1% L-glutamine at 37 °C, under 5% CO2 and 95% humidity. Cells were seeded at concentration of 30000 cells per well in fresh complete growth medium in 96-well tissue culture microtiter plates for 24 h. Media was aspirated, fresh complete medium was added and cells were incubated with different concentrations of the tested compound to give a final concentration of [50, 25, 12.5 and 6.25 μM “in addition to 3.125, 1.56 and 0.78 μM in case of high potent analogues”). 0.5% DMSO was used as negative control. Triplicate wells were prepared for each individual dose. After 72 h of incubation, medium was aspirated, 40 μl MTT salt (2.5 mg ml^-1) was added to each well and incubated for further 4 h at 37 °C. To stop the reaction and dissolve the formed crystals, 150 μl of 10% sodium dodecyl sulfate (SDS) in deionized water was added to each well and incubated overnight at 37 °C. The absorbance was then measured at 570 nm and a reference wavelength of 595 nm.
# as §3, §4
# (§6) Statistical calculations for determination of the mean and standard error mean values were determined by SPSS 16 software. The observed anti-proliferative properties are presented in Table 1 (Supplementary Figs. S48‒S52).
# [6] = system: RPE1 (normal human immortalized retinal pigment epithelial cell line); test: MTT toxicity towards normal cells, RPE1; type: cell-based; conditions: RPE-1, read-out: IC50 (µM) ± SEM RPE1
# Method: The safety of the synthesized agents against non-cancer/normal RPE1 (retinal pigment epithelium) cell line was assessed (Table 1, Supplementary Fig. S52). The SI (selectivity index) for the tested compounds against RPE1 cell line confirms the safety towards non-cancer cells. […] Compound 6d and 6h which are also of high anti-PaCa2 show remarkable SI values (SI = > 3.8, > 3.6, respectively).
# The agents synthesized were also tested against RPE1 (normal human immortalized retinal pigment epithelial cell line) cell (in DMEM-F12 medium) to determine the toxicity/selectivity towards normal cells relative to the cancer cell lines utilized.
# as §6
# [7] = target: T1, EGFR (Homo sapiens, UniProt P00533); type: cell-based; conditions: western blot, MCF7, compound at its MTT IC50; for EGFR RQ (relative quantification): control RQ 3.4461
# T1 construct: Western blot technique was considered for EGFR and VEGFR-2 properties determination; endogenous in cells; host or cells: MCF7 (breast cancer cell line)
# Description: (§7) The western blot technique was applied utilizing the IC50 observed for each respective agent synthesized during MTT assay[85],[86]. Consideration of multi-targeted inhibitory properties investigation is based in the fact that cancer initiation and proliferation sometimes utilizes many receptors or signaling pathways.
# (§8) Western blot technique was considered for EGFR and VEGFR-2 properties determination utilizing the IC50 observed of each respective agent synthesized during MTT assay against MCF7 (breast) cancer cell line. All the studies were conducted according to the manufacturer’s instruction.^10,^11
# [8] = target: T2, VEGFR-2 (Homo sapiens, UniProt P35968); type: cell-based; conditions: western blot, MCF7, compound at its MTT IC50; for VEGFR-2 RQ (relative quantification): control RQ 3.2634
# T2 construct: Western blot technique was considered for EGFR and VEGFR-2 properties determination; endogenous in cells; host or cells: MCF7 (breast cancer cell line)
# Description: as §7, §8
# [9] = system: SARS-CoV-2 (hCoV-19/Egypt/NRC-03/2020); test: Vero-E6 cell viral infection model, anti-SARS-CoV-2 IC50 (CPE, crystal violet); type: cell-based; conditions: for IC50: Severe acute respiratory syndrome coronavirus 2, Vero C1008; for SI = CC50/IC50: Vero-E6, SARS-CoV-2
# [10] = MTT cytotoxicity assay (CC50); type: cell-based; conditions: African green monkey, VERO-E6 cells
# Method: The cytotoxic activity of the compounds was tested in VERO-E6 cells by using the 3-(4,5-dimethylthiazol-2-yl)-2,5-diphenyltetrazolium bromide (MTT) method with minor modifications. Briefly, the cells were seeded in 96 well-plates […] at a density of 3 x 10^5 cell/ml and incubated for 24 h at 37 °C in 5% CO2. After 24 h, cells were treated with various concentrated of the tested compounds in triplicates. 24 h later, the supernatant was discarded and cell monolayers were washed with sterile 1x phosphate buffer saline (PBS) 3 times and MTT solution (20 µl of 5 mg/ml) was added to each well and incubated at 37 °C for 4 h followed by medium aspiration. In each well, the formed formazan crystals were dissolved with 200 µl of acidified isopropanol (0.04 M HCl in absolute isopropanol = 0.073 ml HCl in 50 ml isopropanol). Eventually, the absorbance was measured at λmax 570 nm using the Anthos Zenyth 200rt plate reader (Anthos Labtec Instruments, Heerhugowaard, Netherlands). The cytotoxicity of various concentrations compared to the untreated cells was determined using nonlinear regression analysis by plotting log inhibitor versus normalized response.^12^-14
# [11] = target: AChE (Homo sapiens, UniProt P22303); test: AChE inhibition (DTNB, acetylthiocholine); type: biochemical; conditions: for IC50: read-out: AChE (IC50, μM) ± SD
# Method: All compounds were dissolved in MeOH.
# [12] = target: BChE (Homo sapiens, UniProt P06276); test: BChE inhibition (DTNB, butyrylthiocholine iodide)
# [13] = system: VERO-E6 cells; conditions: cited from earlier work
# [14] = A-431, 72 h, read-out: IC50 (µM) ± SEM A431
# [15] = A-431, read-out: Observed log(IC50, μM) (A431) (converted)
# [16] = Vero-E6, 72 h, reduction of virus-induced CPE, read-out: IC50 (µM) SARS-CoV-2
# [17] = log of observed IC50 in μM, read-out: Observed log(IC50, μM) (SARS-CoV-2) (converted)
# T1 sequence (P00533 25-1210): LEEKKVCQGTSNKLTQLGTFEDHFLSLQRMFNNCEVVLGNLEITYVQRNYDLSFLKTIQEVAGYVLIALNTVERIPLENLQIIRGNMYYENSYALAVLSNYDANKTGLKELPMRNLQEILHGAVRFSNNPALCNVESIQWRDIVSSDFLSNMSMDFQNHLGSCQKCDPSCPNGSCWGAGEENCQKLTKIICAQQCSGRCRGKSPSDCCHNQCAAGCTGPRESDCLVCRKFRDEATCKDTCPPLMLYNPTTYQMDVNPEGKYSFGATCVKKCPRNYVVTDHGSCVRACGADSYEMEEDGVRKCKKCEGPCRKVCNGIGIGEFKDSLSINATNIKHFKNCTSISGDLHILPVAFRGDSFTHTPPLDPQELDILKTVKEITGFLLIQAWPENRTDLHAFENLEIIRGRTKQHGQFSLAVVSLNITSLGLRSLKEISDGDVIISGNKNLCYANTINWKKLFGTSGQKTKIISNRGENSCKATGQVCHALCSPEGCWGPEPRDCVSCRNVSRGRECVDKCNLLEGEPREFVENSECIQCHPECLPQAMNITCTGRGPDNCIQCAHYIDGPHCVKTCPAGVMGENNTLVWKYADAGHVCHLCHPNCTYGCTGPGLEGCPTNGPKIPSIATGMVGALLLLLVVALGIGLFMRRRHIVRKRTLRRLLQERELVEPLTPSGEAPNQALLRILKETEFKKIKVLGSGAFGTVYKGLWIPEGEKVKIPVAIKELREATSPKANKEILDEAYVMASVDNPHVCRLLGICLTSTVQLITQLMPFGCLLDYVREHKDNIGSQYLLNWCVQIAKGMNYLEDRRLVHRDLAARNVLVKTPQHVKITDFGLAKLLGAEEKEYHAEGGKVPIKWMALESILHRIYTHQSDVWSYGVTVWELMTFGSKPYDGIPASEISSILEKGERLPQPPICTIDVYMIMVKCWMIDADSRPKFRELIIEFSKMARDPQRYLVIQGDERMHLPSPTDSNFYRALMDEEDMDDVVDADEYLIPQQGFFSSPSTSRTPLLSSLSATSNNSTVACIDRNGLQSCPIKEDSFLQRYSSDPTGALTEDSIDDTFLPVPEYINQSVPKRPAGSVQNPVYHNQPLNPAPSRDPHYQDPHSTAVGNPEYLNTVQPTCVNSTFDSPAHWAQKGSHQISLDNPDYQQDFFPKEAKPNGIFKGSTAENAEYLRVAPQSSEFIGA
# T2 sequence (P35968 20-1356): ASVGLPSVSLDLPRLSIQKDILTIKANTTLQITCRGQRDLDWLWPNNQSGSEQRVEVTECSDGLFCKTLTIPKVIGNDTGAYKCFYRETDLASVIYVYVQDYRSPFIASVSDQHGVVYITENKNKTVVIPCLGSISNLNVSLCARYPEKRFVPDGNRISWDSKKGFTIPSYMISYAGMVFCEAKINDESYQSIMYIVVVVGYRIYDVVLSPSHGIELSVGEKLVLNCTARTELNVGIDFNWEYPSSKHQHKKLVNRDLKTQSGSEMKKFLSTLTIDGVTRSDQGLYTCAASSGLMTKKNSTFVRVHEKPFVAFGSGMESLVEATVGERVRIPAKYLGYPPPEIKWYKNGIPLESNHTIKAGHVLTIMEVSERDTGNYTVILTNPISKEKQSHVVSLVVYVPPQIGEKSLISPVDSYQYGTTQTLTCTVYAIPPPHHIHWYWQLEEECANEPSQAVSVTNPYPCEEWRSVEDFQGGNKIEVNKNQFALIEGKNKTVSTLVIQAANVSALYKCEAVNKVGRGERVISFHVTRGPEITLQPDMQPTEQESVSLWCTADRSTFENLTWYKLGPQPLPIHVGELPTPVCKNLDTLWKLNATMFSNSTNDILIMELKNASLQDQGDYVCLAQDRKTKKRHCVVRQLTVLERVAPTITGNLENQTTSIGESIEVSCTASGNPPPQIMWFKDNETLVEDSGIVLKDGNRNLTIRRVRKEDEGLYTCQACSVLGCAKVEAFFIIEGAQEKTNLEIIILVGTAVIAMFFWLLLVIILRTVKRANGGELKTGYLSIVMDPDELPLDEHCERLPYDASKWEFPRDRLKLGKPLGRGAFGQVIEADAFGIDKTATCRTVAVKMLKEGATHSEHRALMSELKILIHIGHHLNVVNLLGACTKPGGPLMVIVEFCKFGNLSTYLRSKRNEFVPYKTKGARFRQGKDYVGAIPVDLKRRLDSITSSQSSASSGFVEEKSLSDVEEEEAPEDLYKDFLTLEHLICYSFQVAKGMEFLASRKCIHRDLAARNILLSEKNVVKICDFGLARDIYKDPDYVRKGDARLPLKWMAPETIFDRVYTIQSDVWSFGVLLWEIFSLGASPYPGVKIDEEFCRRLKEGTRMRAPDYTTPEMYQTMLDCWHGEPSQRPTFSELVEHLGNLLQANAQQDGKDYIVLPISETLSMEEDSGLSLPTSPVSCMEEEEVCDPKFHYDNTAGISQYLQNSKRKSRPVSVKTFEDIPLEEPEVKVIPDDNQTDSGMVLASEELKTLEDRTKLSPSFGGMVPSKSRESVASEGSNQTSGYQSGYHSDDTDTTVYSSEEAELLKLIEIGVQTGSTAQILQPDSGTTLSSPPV
# AChE, sequence (P22303 32-614): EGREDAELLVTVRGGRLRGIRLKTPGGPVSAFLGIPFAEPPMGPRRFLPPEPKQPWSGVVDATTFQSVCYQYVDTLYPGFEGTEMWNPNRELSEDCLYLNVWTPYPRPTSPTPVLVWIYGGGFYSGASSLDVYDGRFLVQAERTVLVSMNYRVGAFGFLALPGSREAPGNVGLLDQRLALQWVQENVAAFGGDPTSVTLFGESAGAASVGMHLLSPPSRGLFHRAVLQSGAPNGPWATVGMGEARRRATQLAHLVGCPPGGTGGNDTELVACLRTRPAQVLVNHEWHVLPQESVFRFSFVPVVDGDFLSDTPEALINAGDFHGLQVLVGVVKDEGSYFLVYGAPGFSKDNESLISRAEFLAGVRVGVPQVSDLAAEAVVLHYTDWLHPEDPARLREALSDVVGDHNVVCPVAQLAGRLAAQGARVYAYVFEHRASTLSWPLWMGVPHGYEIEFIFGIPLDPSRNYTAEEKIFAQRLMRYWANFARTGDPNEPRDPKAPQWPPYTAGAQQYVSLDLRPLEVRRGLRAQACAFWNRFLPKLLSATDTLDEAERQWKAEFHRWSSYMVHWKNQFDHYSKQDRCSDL
# BChE, sequence (P06276 29-602, species assumed): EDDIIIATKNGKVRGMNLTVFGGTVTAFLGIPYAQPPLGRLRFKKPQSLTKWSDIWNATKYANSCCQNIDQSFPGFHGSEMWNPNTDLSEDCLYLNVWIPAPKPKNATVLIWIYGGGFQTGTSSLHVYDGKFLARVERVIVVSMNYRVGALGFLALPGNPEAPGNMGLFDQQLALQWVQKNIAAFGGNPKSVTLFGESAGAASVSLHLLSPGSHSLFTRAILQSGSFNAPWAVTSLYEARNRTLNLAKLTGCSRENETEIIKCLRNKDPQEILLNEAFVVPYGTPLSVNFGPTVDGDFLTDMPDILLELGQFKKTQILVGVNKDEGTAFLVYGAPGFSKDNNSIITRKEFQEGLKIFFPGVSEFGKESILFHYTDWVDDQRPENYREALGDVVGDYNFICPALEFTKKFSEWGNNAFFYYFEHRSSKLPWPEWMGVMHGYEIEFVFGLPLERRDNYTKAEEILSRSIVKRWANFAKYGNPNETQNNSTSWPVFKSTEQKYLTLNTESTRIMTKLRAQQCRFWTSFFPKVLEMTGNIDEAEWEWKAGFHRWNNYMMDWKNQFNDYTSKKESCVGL
Structure (SMILES),IC50 [1] [µM],IC50 [2] [µM],SI (selectivity index) MCF7 [2],IC50 [3] [µM],SI (selectivity index) HCT116 [3],"IC50 [4, 14] [µM]","IC50 [4, 15] [µM]",SI (selectivity index) A431 [4],IC50 [5] [µM],IC50 [6] [µM],EGFR % Inhibition [7] [%],EGFR RQ (relative quantification) [7],VEGFR-2 % Inhibition [8] [%],VEGFR-2 RQ (relative quantification) [8],"IC50 [9, 16] [µM]","IC50 [9, 17] [µM]",SI = CC50/IC50 [9],CC50 at 24 h [10] [µM],SI = IC50 (AChE)/IC50 (BChE) [11],IC50 [11] [µM],other results
CCN(CC)CCCC(C)Nc1ccnc2cc(Cl)ccc12 (stereo not drawn) [Chloroquine],25,–,–,–,–,–,–,–,–,–,–,–,–,–,–,–,–,–,–,–,–
"CCS(=O)(=O)N1C/C(=C\c2ccc(Cl)cc2)C(=O)C2(C1)C(c1ccc(Cl)cc1)CN(C)C21C(=O)Nc2ccccc21 (stereo not drawn) [Compound 6k, (E)-5″-(4-Chlorobenzylidene)-4′-(4-chlorophenyl)-1″-(ethylsulfonyl)-1′-methyldispiro[indoline-3,2′-pyrrolidine-3′,3″-piperidine]-2,4″-dione]",–,4.38 ± 0.26,3.4,4.17 ± 0.38,3.5,2.97 ± 0.29,2.97,5.0,8.83 ± 0.7,14.8 ± 0.99,66.2,1.163,66.2,1.105,8.43,8.43,6.6,55.5,1.6,32.3 ± 4.78,SI (selectivity index) PaCa-2 [5]: 1.7; IC50 [12]: 19.6 ± 2.1 µM
"COc1ccc(/C=C2\CN(S(C)(=O)=O)CC3(C2=O)C(c2ccc(OC)c(OC)c2)CN(C)C32C(=O)Nc3ccccc32)cc1OC (stereo not drawn) [Compound 6n, (E)-5″-(3,4-Dimethoxybenzylidene)-4′-(3,4-dimethoxyphenyl)-1′-methyl-1″-(methylsulfonyl)dispiro[indoline-3,2′-pyrrolidine-3′,3″-piperidine]-2,4″-dione]",–,40.2 ± 1.1,> 1.2,15.4 ± 0.52,> 3.2,34.9 ± 1.36,34.9,> 1.4,32.8 ± 1.21,> 50,69.6,1.047,64.2,1.167,35.9,35.9,17.3,621,0.9,5.4 ± 0.94,SI (selectivity index) PaCa-2 [5]: > 1.5; IC50 [12]: 6.33 ± 0.85 µM
"COc1ccc(/C=C2\CN(S(C)(=O)=O)CC3(C2=O)C(c2ccc(OC)c(OC)c2)CN(C)C32C(=O)Nc3ccc(Cl)cc32)cc1OC (stereo not drawn) [Compound 6o, (E)-5-Chloro-5″-(3,4-dimethoxybenzylidene)-4′-(3,4-dimethoxyphenyl)-1′-methyl-1″-(methylsulfonyl)dispiro[indoline-3,2′-pyrrolidine-3′,3″-piperidine]-2,4″-dione]",–,48.9 ± 1.84,> 1.0,28.5 ± 0.75,> 1.8,45.4 ± 1.84,45.4,> 1.1,> 50,> 50,65.9,1.175,61.8,1.2473,88.2,88.2,2.2,196,1.1,27 ± 6.7,IC50 [12]: 24.9 ± 4.6 µM
NC(=O)c1nc(F)c[nH]c1=O [Favipiravir],1380,–,–,–,–,–,–,–,–,–,–,–,–,–,–,–,–,–,–,–,SI = CC50/IC50 [1]: 3.8; CC50 [13]: 5260 µM
CCN(CCO)CCCC(C)Nc1ccnc2cc(Cl)ccc12 (stereo not drawn) [Hydroxychloroquine],36.9,–,–,–,–,–,–,–,–,–,–,–,–,–,–,–,–,–,–,–,SI = CC50/IC50 [1]: 9.7; CC50 [13]: 356 µM
